We go through 17 compounds from US10947252B2, “Inhibitors of KEAP1-Nrf2 protein-protein interaction” (Janssen Pharmaceutica NV, priority 2018, dated 2021).

In assay [1] the target is Kelch domain of human KEAP1 (321-624 aa) (Homo sapiens (Human), UniProt Q14145). The assay is described as follows: KEAP1 KELCH ThermoFluor binding assay.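 Note: Ligand-induced melting temperature shift of E. coli-expressed KEAP1 Kelch protein, Kd estimated from concentration-response curves of ΔTm.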 Particulars: KEAP Kelch […], 1,8-ANS, pH 7.0, average of results obtained, read-out: Tf Kd.
Chain of Kelch domain of human KEAP1 (321-624 aa) (Q14145 321-624): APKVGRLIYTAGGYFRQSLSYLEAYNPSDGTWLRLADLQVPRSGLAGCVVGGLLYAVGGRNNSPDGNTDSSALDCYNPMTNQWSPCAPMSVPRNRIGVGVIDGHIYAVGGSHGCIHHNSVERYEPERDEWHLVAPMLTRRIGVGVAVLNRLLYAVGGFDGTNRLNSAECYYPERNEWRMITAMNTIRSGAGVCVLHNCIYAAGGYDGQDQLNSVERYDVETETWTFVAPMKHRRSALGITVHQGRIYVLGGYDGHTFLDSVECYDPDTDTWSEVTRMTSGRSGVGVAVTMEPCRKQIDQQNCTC
Assay [2] concerns Glo-Response ARE-luc2P HEK293 cell line. The assay can be described thus: ARE luciferase reporter cell-based assay.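 Note: luciferase signal tracks Nrf2 activation of the ARE once compounds disrupt KEAP1-Nrf2 binding, read with One-Glo reagent, DMSO serving as low control.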 Particulars: Homo sapiens, HEK293, 24 h, average of results obtained.

In the case of `CCn1nnc2c(C)c([C@@H](CC(=O)O)c3ccc(C)c(CN4C[C@H]5CCCN5c5ncccc5S4(=O)=O)n3)ccc21` (single isomer, unassigned) [Example 298, (*R)-3-(6-(((R)-5,5-Dioxido-7a,8,9,10-tetrahydropyrido[2,3-f]pyrrolo[2,1-d][1,2,5]thiadiazepin-6(7H)-yl)methyl)-5-methylpyridin-2-yl)-3-(1-ethyl-4-methyl-1H-benzo[d][1,2,3]triazol-5-yl)propanoic Acid], the dissociation constant (Kd) (in general, the free concentration of one partner at which half of the binding sites on the other are occupied at equilibrium, for simple one-to-one binding) in assay [1] is below 0.001 µM. Besides, it took 0.0215 µM to reach a half-maximal effect in assay [2] (EC50).
As to `Cc1cnc2c(c1)S(=O)(=O)N(Cc1nc([C@@H](c3ccn4c(C(F)F)nnc4c3C)C(C)(C)C(=O)O)ccc1C)CC1(CC1)O2` (single isomer, unassigned) [Example 334, (*S)-3-(3-(Difluoromethyl)-8-methyl-[1,2,4]triazolo[4,3-a]pyridin-7-yl)-2,2-dimethyl-3-(5-methyl-6-((8′-methyl-1′,1′-dioxidospiro[cyclopropane-1,4′-pyrido[2,3-b][1,4,5]oxathiazepin]-2′(3′H)-yl)methyl)pyridin-2-yl)propanoic Acid], in assay [1], the Kd was below 0.001 µM. Besides, the EC50 (in general, the midpoint of the concentration-response curve) in assay [2] was found to be 0.0052 µM.
For the compound `Cc1ccc([C@H](CC(=O)O)c2ccn3c(C(F)(F)F)nnc3c2C)cc1CN1CC2(CC2)Oc2nc(O)ccc2S1(=O)=O` (single isomer, unassigned) [Example 103, (*S)-3-(3-((7′-Hydroxy-1′,1′-dioxidospiro[cyclopropane-1,4′-pyrido[2,3,-b][1,4,5]oxathiazepin]-2′(3′H)-yl)methyl)-4-methylphenyl)-3-(8-methyl-3-(trifluoromethyl)-[1,2,4]triazolo[4,3-a]pyridine-7-yl)propanoic Acid], the Kd in assay [1] stood at 0.0016 µM. The same compound showed an EC50 in assay [2] of 9.13 µM.
As for `Cc1ccc([C@H](CC(=O)O)c2ccc3c(nnn3C3CC3)c2C)cc1CN1C[C@@H]2CCCCN2c2ncccc2S1(=O)=O` (single isomer, unassigned) [Example 398, (*S)-3-(1-Cyclopropyl-4-methyl-1H-benzo[d][1,2,3]triazol-5-yl)-3-(3-(((*S)-5,5-dioxido-7,7a,8,9,10,11-hexahydro-6H-dipyrido[2,1-d:2′,3′-f][1,2,5]thiadiazepin-6-yl)methyl)-4-methylphenyl)propanoic Acid], the dissociation constant Kd in assay [1] is below 0.001 µM. In assay [2], the EC50 turned out to be 0.0014 µM.
For `Cc1ccc([C@@H](CC(=O)O)c2ccn3c(C(F)(F)F)nnc3c2C)cc1CN1CC2(COC2)Oc2ccccc2S1(=O)=O` (single isomer, unassigned) [Example 288, (*R)-3-(3-((1,1-dioxidospiro[benzo[b][1,4,5]oxathiazepine-4,3′-oxetan]-2(3H)-yl)methyl)-4-methylphenyl)-3-(8-methyl-3-(trifluoromethyl)-[1,2,4]triazolo[4,3-a]pyridin-7-yl)propanoic Acid], in that order: below 0.001 µM and 0.123 µM.
Turning to `Cc1cnc2c(c1)S(=O)(=O)N(Cc1cc([C@H](c3ccn4c(C5CC5)nnc4c3C)C(C)(C)C(=O)O)ccc1C)CC1(CC1)O2` (single isomer, unassigned) [Example 393, (*R)-3-(3-Cyclopropyl-8-methyl-[1,2,4]triazolo[4,3-a]pyridin-7-yl)-2,2-dimethyl-3-(4-methyl-3-((8′-methyl-1′,1′-dioxidospiro[cyclopropane-1,4′-pyrido[2,3-b][1,4,5]oxathiazepin]-2′(3′H)-yl)methyl)phenyl)propanoic Acid], the Kd in assay [1] was 2.1 µM. For the same compound, the EC50 in assay [2] was found to be 4.8 µM.
For `Cc1ccc([C@H](CC(=O)O)c2ccn3c(C(F)(F)F)nnc3c2C)cc1CN1C[C@@H]2CN(C)CCN2c2ncccc2S1(=O)=O` (single isomer, unassigned) [Example 178, (*S)-3-(4-Methyl-3-(((S)-9-methyl-5,5-dioxido-7,7a,8,9,10,11-hexahydro-6H-pyrazino[2,1-d]pyrido[2,3-f][1,2,5]thiadiazepin-6-yl)methyl)phenyl)-3-(8-methyl-3-(trifluoromethyl)-[1,2,4]triazolo[4,3-a]pyridin-7-yl)propanoic Acid], in that order: 0.03 µM and 0.44 µM.
Take `CCn1nnc2c(C)c(C(c3cnc(C)c(CN4CC5(CCOCC5)Oc5ncccc5S4(=O)=O)c3)C(C)(C)C(=O)O)ccc21` (racemic) [Example 58, (R/S)-3-(5-((1′,1′-Dioxido-2,3,5,6-tetrahydrospiro[pyran-4,4′-pyrido[2,3-b][1,4,5]oxathiazepin]-2′(3′H)-yl)methyl)-6-methylpyridin-3-yl)-3-(1-ethyl-4-methyl-1H-benzo[d][1,2,3]triazol-5-yl)-2,2-dimethylpropanoic Acid]: the Kd in assay [1] came to 0.0024 µM. The compound also gave an EC50 in assay [2] of 0.226 µM.
For `Cc1ccc([C@@H](c2ccn3c(C(F)(F)F)nnc3c2C)C(C)(C)C(=O)O)cc1CN1CC2(CCOCC2)Oc2nc(OCCO)ccc2S1(=O)=O` (single isomer, unassigned) [Example 606, (*S)-3-(3-((7′-(2-Hydroxyethoxy)-1′,1′-dioxido-2,3,5,6-tetrahydrospiro[pyran-4,4′-pyrido[2,3-b][1,4,5]oxathiazepin]-2′(3′H)-yl)methyl)-4-methylphenyl)-2,2-dimethyl-3-(8-methyl-3-(trifluoromethyl)-[1,2,4]triazolo[4,3-a]pyridine-7-yl)propanoic Acid], in that order: 1.73 µM and above 20 µM.
On the same counts, the results for `Cc1ccc([C@@H](CC(=O)O)c2ccc3c(nnn3C3CC3)c2C)cc1CN1C[C@@]2(C)CCCN2c2ncccc2S1(=O)=O` (single isomer, unassigned) [Example 223, (*R)-3-(1-Cyclopropyl-4-methyl-1H-benzo[d][1,2,3]triazol-5-yl)-3-(4-methyl-3-(((*R)-7a-methyl-5,5-dioxido-7a,8,9,10-tetrahydropyrido[2,3-f]pyrrolo[2,1-d][1,2,5]thiadiazepin-6(7H)-yl)methyl)phenyl)propanoic Acid] are 0.19 µM and 5.46 µM.
Regarding `Cc1ccc([C@H](c2ccn3c(C(F)(F)F)nnc3c2C)C(C)(C)C(=O)O)cc1CN1CC(C)(C)Oc2ncccc2S1(=O)=O` (single isomer, unassigned) [Example 431, (*R)-3-(3-((4,4-dimethyl-1,1-dioxido-3,4-dihydro-2H-pyrido[2,3-b][1,4,5]oxathiazepin-2-yl)methyl)-4-methylphenyl)-2,2-dimethyl-3-(8-methyl-3-(trifluoromethyl)-[1,2,4]triazolo[4,3-a]pyridin-7-yl)propanoic Acid], the dissociation constant (Kd) in assay [1] was below 0.001 µM. The EC50 in assay [2] was 0.00284 µM.
On the same counts, the results for `Cc1ccc([C@H](c2ccn3c(C(F)(F)F)nnc3c2C)C(C)(C)C(=O)O)cc1CN1CC2(CCOCC2)Oc2nc(OCCCOCCCO)ccc2S1(=O)=O` (single isomer, unassigned) [Example 608, (*R)-3-(3-((7′-(3-(3-Hydroxypropoxy)propoxy)-1′,1′-dioxido-2,3,5,6-tetrahydrospiro[pyran-4,4′-pyrido[2,3-b][1,4,5]oxathiazepin]-2′(3′H)-yl)methyl)-4-methylphenyl)-2,2-dimethyl-3-(8-methyl-3-(trifluoromethyl)-[1,2,4]triazolo[4,3-a]pyridin-7-yl)propanoic Acid] are below 0.001 µM and 0.00912 µM.
For `Cc1ccc([C@H](CC(=O)O)c2ccn3c(C(F)F)nnc3c2C)cc1CN1C[C@@H]2COCCN2c2ncccc2S1(=O)=O` (single isomer, unassigned) [Example 458, (*S)-3-(3-(Difluoromethyl)-8-methyl-[1,2,4]triazolo[4,3-a]pyridin-7-yl)-3-(3-(((*R)-5,5-dioxido-7a,8,10,11-tetrahydro-[1,4]oxazino[3,4-d]pyrido[2,3-f][1,2,5]thiadiazepin-6(7H)-yl)methyl)-4-methylphenyl)propanoic Acid], in that order: below 0.001 µM and 0.276 µM.
As to `Cc1cc2cc([C@@H](CC(=O)O)c3ccc(C)c(CN4C[C@H]5CCCN5c5ncccc5S4(=O)=O)c3)n(C)c2nn1` (single isomer, unassigned) [Example 435, (*S)-3-(3,7-Dimethyl-7H-pyrrolo[2,3-c]pyridazin-6-yl)-3-(3-(((R)-5,5-dioxido-7a,8,9,10-tetrahydropyrido[2,3-f]pyrrolo[2,1-d][1,2,5]thiadiazepin-6(7H)-yl)methyl)-4-methylphenyl)propanoic Acid], the Kd in assay [1] amounted to 0.119 µM. In addition, in assay [2], the EC50 was above 20 µM.
Regarding `Cc1cnc2c(c1)S(=O)(=O)N(Cc1cc([C@@H](c3ccc4c(nnn4C4CC4)c3C)C(C)(C)C(=O)O)cnc1C)CC1(CC1)O2` (single isomer, unassigned) [Example 395, (*S)-3-(1-Cyclopropyl-4-methyl-1H-benzo[d][1,2,3]triazol-5-yl)-2,2-dimethyl-3-(6-methyl-5-((8′-methyl-1′,1′-dioxidospiro[cyclopropane-1,4′-pyrido[2,3-b][1,4,5]oxathiazepin]-2′(3′H)-yl)methyl)pyridin-3-yl)propanoic Acid], in assay [1], the Kd was below 0.001 µM. Besides, the EC50 in assay [2] was 0.0157 µM.
For `Cc1ncc([C@H](c2ccn3c(C(F)(F)F)nnc3c2C)C(C)(C)C(=O)O)cc1CN1C[C@@H]2CCCCN2c2ncc(C#N)cc2S1(=O)=O` (single isomer, unassigned) [Example 657, (*S)-3-(5-(((*S)-3-Cyano-5,5-dioxido-7,7a,8,9,10,11-hexahydro-6H-dipyrido[2,1-d:2′,3′-f][1,2,5]thiadiazepin-6-yl)methyl)-6-methylpyridin-3-yl)-2,2-dimethyl-3-(8-methyl-3-(trifluoromethyl)-[1,2,4]triazolo[4,3-a]pyridin-7-yl)propanoic Acid], in that order: below 0.001 µM and 0.075 µM.
For `Cc1cnc2c(c1)S(=O)(=O)N(Cc1cc([C@H](c3ccc4c(nnn4C4CC4)c3C)C(C)(C)C(=O)O)ccc1C)CC1(CCNCC1)O2` (single isomer, unassigned) [Example 649, (*R)-3-(1-Cyclopropyl-4-methyl-1H-benzo[d][1,2,3]triazol-5-yl)-2,2-dimethyl-3-(4-methyl-3-((8′-methyl-1′,1′-dioxidospiro[piperidine-4,4′-pyrido[2,3-b][1,4,5]oxathiazepin]-2′(3′)-yl)methyl)phenyl)propanoic Acid], in that order: 1.45 µM and 4.75 µM.
